From patent US5194383A, “Process for making L-aminoacylase” (priority 1991, dated 1993)
Read-outs that look alike come from different tables or passages of the source.

Assays:
[1] = test system: L-amino acylase; format: biochemical, Alcaligenes denitrificans DA181; conditions: for influence of the ion on the enzyme: in words, 30 minutes at 37° C., buffer A
Procedure: Various metal ions were incubated with an appropriate amount of enzyme for 30 min in 50 mM Tris-HCl pH 8.0. The remaining activity was determined by ninhydrin method.

[2] = test system: L-amino acylase; test: Substrate specificity of L-amino acylase (ninhydrin method); format: biochemical, Alcaligenes denitrificans DA181; conditions: for Relative activity (%) L-amino acylase: 37° C., 50 mM Tris-HCl buffer pH 8.0
Procedure: This enzyme may hydrolyze N-acetyl-L-amino acids with a higher reactivity, but hydrolyze the N-acetyl-D-amino acids with a lower reactivity.
(§1) A comparison of the substrate specificity of L-amino acylase of this invention with D-amino acylase is summarized as shown in Table 3.
(§2) The enzyme activity was determined at 37° C. in 50 mM TrisCHl
(§3) buffer pH 8.0 by ninhydrin method.

[3] = test system: D-amino acylase; test: Substrate specificity of D-amino acylase (ninhydrin method); format: biochemical; conditions: D-form of substrate; 37° C., 50 mM Tris-HCl buffer pH 8.0
Procedure: as §1, §2, §3

[4] = test system: L-aminoacylase by Aspergillus; conditions: conventional Aspergillus enzyme; cited from earlier work
[5] = metal ion 1 mM, 30 min, 50 mM Tris-HCl pH 8.0
[6] = metal ion 10^-1 mM, 30 min, 50 mM Tris-HCl pH 8.0, 100 µM
[7] = metal ion 10^-2 mM, 30 min, 50 mM Tris-HCl pH 8.0, 10 µM
[8] = metal ion 10^-3 mM, 30 min, 50 mM Tris-HCl pH 8.0, 1 µM

**Q.** With `[Ba+2].[Cl-].[Cl-]` [BaCl2] as the compound, how does the “relative activity of L-amino acylase (%)” value [1, 5] read?
**A.** The value was 92%.

**Q.** Which “relative activity of L-amino acylase (%)” value [1, 5] does the source give for `[Ca+2].[Cl-].[Cl-]` [CaCl2] here?
**A.** Its value is 94%.

**Q.** For `[Cl][Cd][Cl]` [CdCl2], which “influence of the ion on the enzyme” value [1] is on record?
**A.** The value was “inhibited”.

**Q.** What about the “relative activity of L-amino acylase (%)” value [1, 5] of the same compound?
**A.** The value was 16%.

**Q.** For `[Cl-].[Cl-].[Co+2]` [CoCl2], which “relative activity of L-amino acylase (%)” value [1, 5] is on record?
**A.** Its value is 120%.

**Q.** What does the source list for `[Cl][Cu][Cl]` [CuCl2]?
**A.** influence of the ion on the enzyme [1]: inhibited; relative activity of L-amino acylase (%) [1, 5]: 5%; relative activity of L-amino acylase (%) [1, 6]: 77%; relative activity of L-amino acylase (%) [1, 7]: 90%; relative activity of L-amino acylase (%) [1, 8]: 94%

**Q.** Which “relative activity of L-amino acylase (%)” value ([1]; 50 mm tris-hcl, pH 8, 30 min, 1000 µM) does the source give for `O=C(O)CN(CCN(CC(=O)O)CC(=O)O)CC(=O)O` [EDTA.2Na] here?
**A.** Its value is 55%.

**Q.** With `[Cl][Fe][Cl]` [FeCl2] as the compound, how does the “influence of the ion on the enzyme” value [1] read?
**A.** Its value is “inhibited”.

**Q.** And the “relative activity of L-amino acylase (%)” value [1, 5]?
**A.** Its value is 15%.

**Q.** With `[Cl][Hg][Cl]` [HgCl2] as the compound, how does the “influence of the ion on the enzyme” value [1] read?
**A.** Its value is “inhibited”.

**Q.** What about the “relative activity of L-amino acylase (%)” value [1, 8] of the same compound?
**A.** The value was 0%.

**Q.** What about the “relative activity of L-amino acylase (%)” value ([1]; metal ion 10^-4 mM, 30 min, 50 mM Tris-HCl pH 8.0, 0.1 µM) of the same compound?
**A.** The value was 0%.

**Q.** For `[Cl-].[Cl-].[Mg+2]` [MgCl2], which “relative activity of L-amino acylase (%)” value [1, 5] is on record?
**A.** The value was 98%.

**Q.** Which “relative activity of L-amino acylase (%)” value [1, 5] does the source give for `[Cl][Mn][Cl]` [MnCl2] here?
**A.** The value was 86%.

**Q.** Which results are given for `CC(=O)N[C@@H](C)C(=O)O` [N-acetyl-alanine]?
**A.** Relative activity (%) L-amino acylase ([2]; D-form of substrate): 0%; Relative activity (%) L-amino acylase ([2]; L-form of substrate): 78%; Relative activity (%) D-amino acylase [3]: 25%

**Q.** Which results are given for `CC[C@@H](C)[C@H](NC(C)=O)C(=O)O` [N-acetyl-alloisoleucine]?
**A.** Relative activity (%) L-amino acylase ([2]; D-form of substrate): 0%; Relative activity (%) D-amino acylase [3]: 12%

**Q.** Which “Relative activity (%) L-amino acylase” value ([2]; L-form of substrate) does the source give for `CC(=O)N[C@@H](CCCNC(=N)N)C(=O)O` [N-acetyl-arginine] here?
**A.** Its value is 0.04%.

**Q.** With `CC(=O)N[C@@H](CC(N)=O)C(=O)O` [N-acetyl-asparagine] as the compound, how does the “Relative activity (%) L-amino acylase” value ([2]; D-form of substrate) read?
**A.** Its value is 0%.

**Q.** And the “Relative activity (%) L-amino acylase” value ([2]; L-form of substrate)?
**A.** The value was 3%.

**Q.** And the “Relative activity (%) D-amino acylase” value [3]?
**A.** The value was 17%.

**Q.** Which “Relative activity (%) L-amino acylase” value ([2]; L-form of substrate) does the source give for `CC(=O)N[C@@H](CC(=O)O)C(=O)O` [N-acetyl-aspartic acid] here?
**A.** Its value is 1%.

**Q.** With `CC(=O)N[C@@H](CCC(=O)O)C(=O)O` [N-acetyl-glutamic acid] as the compound, how does the “Relative activity (%) L-amino acylase” value ([2]; L-form of substrate) read?
**A.** Its value is 0.12%.

**Q.** For `CC(=O)N[C@@H](Cc1c[nH]cn1)C(=O)O` [N-acetyl-histidine], which “Relative activity (%) L-amino acylase” value ([2]; L-form of substrate) is on record?
**A.** Its value is 0.08%.

**Q.** For `CC(=O)N[C@@H](CC(C)C)C(=O)O` [N-acetyl-leucine], which “Relative activity (%) L-amino acylase” value ([2]; D-form of substrate) is on record?
**A.** Its value is 2%.

**Q.** What about the “Relative activity (%) L-amino acylase” value ([2]; L-form of substrate) of the same compound?
**A.** The value was 10%.

**Q.** What about the “Relative activity (%) D-amino acylase” value [3] of the same compound?
**A.** Its value is 60%.

**Q.** Which results are given for `CSCC[C@H](NC(C)=O)C(=O)O` [N-acetyl-methionine]?
**A.** Relative activity (%) L-amino acylase ([2]; D-form of substrate): 0.12%; Relative activity (%) L-amino acylase ([2]; L-form of substrate): 30%; Relative activity (%) D-amino acylase [3]: 100%

**Q.** With `CC(=O)N[C@@H](Cc1ccccc1)C(=O)O` [N-acetyl-phenylalanine] as the compound, how does the “Relative activity (%) L-amino acylase” value ([2]; D-form of substrate) read?
**A.** The value was 0.9%.

**Q.** And the “Relative activity (%) L-amino acylase” value ([2]; L-form of substrate)?
**A.** Its value is 34%.

**Q.** What about the “Relative activity (%) D-amino acylase” value [3] of the same compound?
**A.** Its value is 81%.

**Q.** For `CC(=O)N[C@@H](C(=O)O)c1ccccc1` [N-acetyl-phenylglycine], which “Relative activity (%) L-amino acylase” value ([2]; D-form of substrate) is on record?
**A.** The value was 0%.

**Q.** And the “Relative activity (%) D-amino acylase” value [3]?
**A.** The value was 5%.

**Q.** Which results are given for `CC(=O)N[C@@H](Cc1c[nH]c2ccccc12)C(=O)O` [N-acetyl-tryptophan]?
**A.** Relative activity (%) L-amino acylase ([2]; D-form of substrate): 0.9%; Relative activity (%) L-amino acylase ([2]; L-form of substrate): 11%; Relative activity (%) D-amino acylase [3]: 33%

**Q.** Which “Relative activity (%) L-amino acylase” value ([2]; L-form of substrate) does the source give for `CC(=O)N[C@@H](Cc1ccc(O)cc1)C(=O)O` [N-acetyl-tyrosine] here?
**A.** Its value is 36%.

**Q.** Which “Relative activity (%) L-amino acylase” value ([2]; D-form of substrate) does the source give for `CC(=O)N[C@H](C(=O)O)C(C)C` [N-acetyl-valine] here?
**A.** Its value is 7%.

**Q.** What about the “Relative activity (%) L-amino acylase” value ([2]; L-form of substrate) of the same compound?
**A.** The value was 95%.

**Q.** What about the “Relative activity (%) D-amino acylase” value [3] of the same compound?
**A.** Its value is 6%.

**Q.** For `CC(C)[C@H](NC(=O)CCl)C(=O)O` [N-chloroacetyl-L-valine], which “reactivity of hydrolysis by the enzyme” value ([2]; in words) is on record?
**A.** Its value is “especially high”.

**Q.** Which “Relative activity (%) L-amino acylase” value ([2]; D-form of substrate) does the source give for `CC(C)[C@H](NC(=O)CCl)C(=O)O` [N-chloroacetyl-valine] here?
**A.** The value was 0.8%.

**Q.** And the “Relative activity (%) L-amino acylase” value ([2]; L-form of substrate)?
**A.** The value was 100%.

**Q.** What about the “Relative activity (%) D-amino acylase” value [3] of the same compound?
**A.** Its value is 66%.

**Q.** Which “relative activity of L-amino acylase (%)” value [1, 5] does the source give for `[Cl][Ni][Cl]` [NiCl2] here?
**A.** Its value is 95%.

**Q.** What does the source list for `[Cl][Pb][Cl]` [PbCl2]?
**A.** influence of the ion on the enzyme [1]: inhibited; relative activity of L-amino acylase (%) [1, 5]: 50%; relative activity of L-amino acylase (%) [1, 6]: 71%; relative activity of L-amino acylase (%) [1, 7]: 71%; relative activity of L-amino acylase (%) [1, 8]: 97%

**Q.** Which “relative activity of L-amino acylase (%)” value [1, 5] does the source give for `[Cl-].[Cl-].[Sr+2]` [SrCl2] here?
**A.** The value was 80%.

**Q.** For `[Cl-].[Cl-].[Zn+2]` [ZnCl2], which “influence of the ion on the enzyme” value [1] is on record?
**A.** Its value is “inhibited”.

**Q.** What about the “relative activity of L-amino acylase (%)” value [1, 5] of the same compound?
**A.** Its value is 61%.

**Q.** For `[Co+2]` [cobalt ions], which enzyme activation [4] is on record?
**A.** Its enzyme activation is 2.5 fold.
